# Columns and labels:
# [1] = molecular target: T1, human LXR alpha (Homo sapiens, UniProt Q13133); assay: Radioligand binding assay (SPA), LXR alpha LBD; settings: radioligand displacement, LXRα-LBD on SPA beads; read-out: LXRalpha Binding IC50
# T1 construct: human LXR alpha (aa 164 to 447); unspecified tag ('tagged versions'); made in house; host or cells: E. coli BL21 (pLysS)
# T1 sequence (Q13133 164-447): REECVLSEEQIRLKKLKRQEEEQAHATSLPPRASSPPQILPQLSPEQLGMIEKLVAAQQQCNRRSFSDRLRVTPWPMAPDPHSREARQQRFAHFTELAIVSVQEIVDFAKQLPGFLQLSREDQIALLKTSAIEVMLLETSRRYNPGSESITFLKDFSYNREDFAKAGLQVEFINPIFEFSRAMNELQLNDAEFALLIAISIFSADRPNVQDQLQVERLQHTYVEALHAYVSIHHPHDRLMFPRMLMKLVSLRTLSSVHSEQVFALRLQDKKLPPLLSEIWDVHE
# Procedure: (§1) The following tests were carried out in order to determine the activity of the compounds of the present invention. Background information on the performed assays can be found in: Nichols J S et al. “Development of a scintillation proximity assay for peroxisome proliferator-activated receptor gamma ligand binding domain”, Anal Biochem. 1998, 257: 112-119.
# (§2) Mammalian expression vectors were constructed to express full-length human LXR alpha and LXR beta. Bacterial expression vectors were constructed to produce tagged versions of the ligand binding domains (LBD) of human LXR alpha (aa 164 to 447) and human LXR beta (aa 155 to 460). To accomplish this, the portions of the sequences encoding the LBDs were amplified from the full-length clones by PCR and then subcloned into the plasmid vectors. Final clones were verified by DNA sequence analysis (Willy et al., Genes Dev. 1995, 9:1033-45; Song et al., Proc Natl Acad Sci USA. 1994, 91:10809-13).
# (§3) Induction, expression, and purification of LBD proteins were performed in E. coli strain BL21 (pLysS) cells by standard methods (Ref: Current Protocols in Molecular Biology, Wiley Press, edited by Ausubel et al).
# (§4) Radioligand Binding Assay
# (§5) LXR alpha and LXR beta receptor binding were assayed in buffer consisting of 50 mM HEPES, pH 7.4, 10 mM NaCl, 5 mM MgCl2. For each 96-well reaction, 500 ng of LXRα-LBD or 700 ng of LXR beta-LBD proteins were bound to 80 μg or 40 μg SPA beads respectively, in a final volume of 50 μl by shaking. The resulting slurry was incubated for 1 h at RT and centrifuged for 2 min at 1300×g. The supernatant containing unbound protein was removed, and the semi-dry pellet containing the receptor-coated beads was re-suspended in 50 μl of buffer. Radioligand (eg. 100,000 dpm of (N-(2,2,2-trifluoroethyl)-N-[4-(2,2,2-trifluoro-1-hydroxy-1-trifluoromethylethyl)-phenyl]-benzenesulfonamide)) was added, and the reaction incubated at RT for 1 h in the presence of test compounds, and then scintillation proximity counting was performed. All binding assays were performed in 96-well plates and the amount of bound ligand was measured on a Packard TopCount using OptiPlates (Packard). Dose response curves were measured within a range of concentration from 10^−10 M to 10^−4 M.
# [2] = molecular target: T2, human LXR beta (Homo sapiens, UniProt P55055); assay: Radioligand binding assay (SPA), LXR beta LBD; settings: radioligand displacement, LXR beta-LBD on SPA beads; read-out: LXRbeta Binding IC50
# T2 construct: human LXR beta (aa 155 to 460); unspecified tag ('tagged versions'); made in house; host or cells: E. coli BL21 (pLysS)
# T2 sequence (P55055 155-460): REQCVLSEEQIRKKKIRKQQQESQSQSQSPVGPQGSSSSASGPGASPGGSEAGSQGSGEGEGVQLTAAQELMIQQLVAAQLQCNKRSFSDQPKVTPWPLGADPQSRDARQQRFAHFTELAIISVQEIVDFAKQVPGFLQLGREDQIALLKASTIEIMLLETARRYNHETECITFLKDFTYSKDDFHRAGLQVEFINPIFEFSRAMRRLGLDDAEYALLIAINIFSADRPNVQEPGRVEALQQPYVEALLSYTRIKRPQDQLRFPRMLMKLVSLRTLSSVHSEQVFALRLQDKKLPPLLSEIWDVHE
# Procedure: as §1, §2, §3, §4, §5
Compound,IC50 [1],IC50 [2]
"CCS(=O)(=O)N1CC(c2cccc(-c3cccc(S(C)(=O)=O)c3)c2)N(C(C)C)C1=O (stereo not drawn) [Example 18, 1-Ethanesulfonyl-3-isopropyl-4-(3′-methanesulfonyl-biphenyl-3-yl)-imidazolidin-2-one]",5010 nM,106 nM
"Cc1ccccc1N1CCN(C(=O)OC(C)(C)C)CC1c1cccc(-c2cncc(S(C)(=O)=O)c2)c1 (stereo not drawn) [Example 49, 3-[3-(5-Methanesulfonyl-pyridin-3-yl)-phenyl]-4-o-tolyl-piperazine-1-carboxylic acid tert-butyl ester]",8880 nM,3750 nM
"Cc1ccc(F)cc1-c1cccc(C2CN(S(=O)(=O)c3ccccc3)C(=O)N2C(C)C)c1 (stereo not drawn) [Example 22, 1-Benzenesulfonyl-4-(5′-fluoro-2′-methyl-biphenyl-3-yl)-3-isopropyl-imidazolidin-2-one]",4700 nM,1360 nM
"CS(=O)(=O)c1cccc(-c2cccc(C3CN(S(=O)(=O)c4ccccc4)C(=O)N3c3ccccc3)c2)c1 (stereo not drawn) [Example 7, 1-Benzenesulfonyl-4-(3′-methanesulfonyl-biphenyl-3-yl)-3-phenyl-imidazolidin-2-one]",90 nM,4 nM
"Cc1cccc(-c2cccc([C@@H]3CN(C(=O)OC(C)(C)C)CC[C@H]3c3ccccc3)c2)c1 (relative stereo) [Example 44, trans-3-(3′-Methyl-biphenyl-3-yl)-4-phenyl-piperidine-1-carboxylic acid tert-butyl ester]",53700 nM,5510 nM
"O=C(O)c1cccc(-c2cccc(C3CN(S(=O)(=O)c4ccccc4)C(=O)N3c3ccccc3)c2)c1 (stereo not drawn) [Example 6, 3′-(1-Benzenesulfonyl-2-oxo-3-phenyl-imidazolidin-4-yl)-biphenyl-3-carboxylic acid]",5720 nM,9030 nM
"CC(C)(C)OC(=O)N1CC[C@H](c2ccccc2)[C@H](c2cccc(-c3cccc(S(C)(=O)=O)c3)c2)C1 (relative stereo) [Example 42, cis-3-(3′-Methanesulfonyl-biphenyl-3-yl)-4-phenyl-piperidine-1-carboxylic acid tert-butyl ester]",2830 nM,610 nM
"CC(C)N1C(=O)N(S(=O)(=O)c2ccccc2)CC1c1cccc(-c2cccc(S(N)(=O)=O)c2)c1 (stereo not drawn) [Example 24, 3′-(1-Benzenesulfonyl-3-isopropyl-2-oxo-imidazolidin-4-yl)-biphenyl-3-sulfonic acid amide]",48 nM,1 nM
"CCOc1ccc(F)c(-c2cccc(C3CN(S(=O)(=O)c4ccccc4)C(=O)N3C(C)C)c2)c1 (stereo not drawn) [Example 30, 1-Benzenesulfonyl-4-(5′-ethoxy-2′-fluoro-biphenyl-3-yl)-3-isopropyl-imidazolidin-2-one]",95 nM,10.4 nM
"CC(C)N1C(=O)N(S(=O)(=O)c2ccccc2)CC1c1cccc(-c2cncc(S(C)(=O)=O)c2)c1 (stereo not drawn) [Example 23, 1-Benzenesulfonyl-3-isopropyl-4-[3-(5-methanesulfonyl-pyridin-3-yl)-phenyl]-imidazolidin-2-one]",2790 nM,25 nM
"COc1ccc(F)cc1-c1cccc(C2CN(S(=O)(=O)c3ccccc3)C(=O)N2C(C)C)c1 (stereo not drawn) [Example 27, 1-Benzenesulfonyl-4-(5′-fluoro-2′-methoxy-biphenyl-3-yl)-3-isopropyl-imidazolidin-2-one]",6230 nM,3800 nM
"CS(=O)(=O)c1cccc(-c2cccc(C3CN(S(=O)(=O)c4ccccc4)CC(=O)N3c3ccccc3)c2)c1 (stereo not drawn) [Example 33, 4-Benzenesulfonyl-6-(3′-methanesulfonyl-biphenyl-3-yl)-1-phenyl-piperazin-2-one]",52700 nM,530 nM
"CC(C)N1C(=O)N(S(=O)(=O)c2ccccc2)CC1c1cccc(-c2cc(F)ccc2F)c1 (stereo not drawn) [Example 32, 1-Benzenesulfonyl-4-(2′,5′-difluoro-biphenyl-3-yl)-3-isopropyl-imidazolidin-2-one]",950 nM,99.5 nM
"Cc1oncc1S(=O)(=O)N1CC(c2cccc(-c3cccc(S(C)(=O)=O)c3)c2)N(C(C)C)C1=O (stereo not drawn) [Example 15, 3-Isopropyl-4-(3′-methanesulfonyl-biphenyl-3-yl)-1-(5-methyl-isoxazole-4-sulfonyl)-imidazolidin-2-one]",2580 nM,160 nM
"CC(C)(C)OC(=O)N1CC[C@@H](c2ccccc2)[C@H](c2cccc(-c3cccc(S(C)(=O)=O)c3)c2)C1 (relative stereo) [Example 38, trans-3-(3′-Methanesulfonyl-biphenyl-3-yl)-4-phenyl-piperidine-1-carboxylic acid tert-butyl ester]",160 nM,25 nM
"Cc1ccc(C)c(-c2cccc([C@H]3CN(C(=O)OC(C)(C)C)C(=O)C[C@H]3c3ccccc3)c2)c1 (relative stereo) [Example 47, Cis-5-(2′,5′-Dimethyl-biphenyl-3-yl)-2-oxo-4-phenyl-piperidine-1-carboxylic acid tert-butyl ester]",185 nM,220 nM
"NCc1cccc(-c2cccc(C3CN(S(=O)(=O)c4ccccc4)CCN3c3ccccc3)c2)c1 (stereo not drawn) [Example 35, C-[3′-(4-Benzenesulfonyl-1-phenyl-piperazin-2-yl)-biphenyl-3-yl]-methylamine]",2620 nM,425 nM
"O=C(O)c1ccccc1-c1cccc(C2CN(S(=O)(=O)c3ccccc3)C(=O)N2c2ccccc2)c1 (stereo not drawn) [Example 11, 3′-(1-Benzenesulfonyl-2-oxo-3-phenyl-imidazolidin-4-yl)-biphenyl-2-carboxylic acid]",13000 nM,46100 nM
"CC(C)N1C(=O)N(S(=O)(=O)C(C)C)CC1c1cccc(-c2cccc(S(C)(=O)=O)c2)c1 (stereo not drawn) [Example 13, 3-Isopropyl-4-(3′-methanesulfonyl-biphenyl-3-yl)-1-(propane-2-sulfonyl)-imidazolidin-2-one]",2490 nM,36 nM
"CC(C)N1C(=O)N(S(=O)(=O)c2ccccc2)CC1c1cccc(-c2cccc(S(C)(=O)=O)c2)c1 (stereo not drawn) [Example 12, 1-Benzenesulfonyl-3-isopropyl-4-(3′-methanesulfonyl-biphenyl-3-yl)-imidazolidin-2-one]",147 nM,24.3 nM
"O=C(O)c1ccc(-c2ccc(C3CN(S(=O)(=O)c4ccccc4)C(=O)N3c3ccccc3)cc2)cc1 (stereo not drawn) [Example 1, 4′-(1-Benzenesulfonyl-2-oxo-3-phenyl-imidazolidin-4-yl)-biphenyl-4-carboxylic acid]",11600 nM,2880 nM
"CC(C)(C)OC(=O)N1C[C@H](c2cccc(-c3cncc(S(C)(=O)=O)c3)c2)[C@H](c2ccccc2)CC1=O (relative stereo) [Example 46, cis-5-[3-(5-Methanesulfonyl-pyridin-3-yl)-phenyl]-2-oxo-4-phenyl-piperidine-1-carboxylic acid tert-butyl ester]",8220 nM,385 nM
"O=C(O)c1ccc(-c2cccc(C3CN(S(=O)(=O)c4ccccc4)C(=O)N3c3ccccc3)c2)cc1 (stereo not drawn) [Example 5, 3′-(1-Benzenesulfonyl-2-oxo-3-phenyl-imidazolidin-4-yl)-biphenyl-4-carboxylic acid]",4140 nM,5420 nM
"CC(C)(C)OC(=O)N1C[C@H](c2cccc(-c3cccc(S(C)(=O)=O)c3)c2)[C@H](c2ccccc2)CC1=O (relative stereo) [Example 45, Cis-5-(3′-Methanesulfonyl-biphenyl-3-yl)-2-oxo-4-phenyl-piperidine-1-carboxylic acid tert-butyl ester]",240 nM,21 nM
